Source: patent US20100093773A1, “METHODS OF TREATING CANCER” (Myriad Pharmaceuticals, Inc., priority 2007, published 2010)
Structures can show the parent of a compound that is named as a salt.

How the values were obtained:
[1] = Phase I clinical trial, weekly intravenous administration, subjects with refractory solid tumors (safety, tolerability); assay type: in vivo, human; details: i.v. weekly x3 per 4 week cycle, 0.3-3.3 mg/m^2
Experimental: An open-label, dose-escalating, multiple-dose study to define the safety, tolerability and pharmacokinetics of weekly intravenous administration of (4-Methoxy-phenyl)-methyl-(2-methyl-quinazolin-4-yl)-amine hydrochloride was performed. A dosing schedule (each 4 week cycle) was performed for (4-Methoxy-phenyl)-methyl-(2-methyl-quinazolin-4-yl)-amine hydrochloride weekly for 3 weeks with no infusion on the fourth week of each cycle. Subjects with refractory solid tumors were enrolled in cohorts of 3. During Cycle 1, subjects were hospitalized during each infusion of (4-Methoxy-phenyl)-methyl-(2-methyl-quinazolin-4-yl)-amine hydrochloride and remained for observation and safety evaluation for approximately 24 hours following the end of the infusion. All subject had continuous telemetry for 2 hours prior to infusion, for 1-2 hour infusion and for 3 hours after the end of the infusion. Any clinically significant electrocardiographic (ECG) wave form abnormality was recorded and prolongation of the monitoring period extended at the discretion of the principal investigator.
Electrocardiograms were obtained prior to starting the infusion and within 30 minutes of the end of infusion for each infusino of the first cycle. Electrocardiograms on Day 1 were obtained in triplicate 5 minutes apart.
Neurocognitive assessments were made by administration of the Mini-Mental State Examination (MMSE), the Hopkins Verbal Learning and timed Grooved Pegboard tests before administration of the intravenous infusion and approximately 24 hours of the infusion at each weekly administration of the first cycle.
On days 1, 8, and 15 of each cycle, vital signs were obtained prior to the first dose, at 15, 30, and 60 minutes after the initiation of the infusion, and at 0.5, 1, 1.5, 2, and 4 hours after the end of the intravenous infusion. Vital signs at all time points beyond the start of the intravenous infusion included heart rate, blood pressure and respirations. Temperature was measured at the end of the infusion and 4 hours later.
Individual subjects were allowed to continue on repeated weekly ×3 administrations every 28 days with no dose increase provided there was no unacceptable toxicity or disease progression.
Tumor response was evaluated by response evaluation criteria in solid tumors (RECIST) criteria. To prevent sever hypersensitivity reactions due to Cremophor® EL, subjects were premedicated with oral dexamethasone (20 mg) administered approximately 12 and 6 hours before the intervenous infusion with (4-Methoxy-phenyl)-methyl-(2-methyl-quinazolin-4-yl)-amine hydrochloride, diphenhydramine (50 mg) or its equivalent administered intravenously 30-60 minutes before (4-Methoxy-phenyl)-methyl-(2-methyl-quinazolin-4-yl)-amine hydrochloride, and cimetidine (300 mg) or ranitidine (50 mg) administered intravenously 30-60 minutes before (4-Methoxy-phenyl)-methyl-(2-methyl-quinazolin-4-yl)-amine hydrochloride.

[2] = tested on: human ovarian OVCAR-3 carcinoma cells; test: Vascular disruption effects in human tumor xenograft model (tumor histology, hematoxylin and eosin Y); assay type: in vivo, Crl:Nu/Nu-nuBR mice; details: OVCAR-3 xenograft, 24 hours after dosing; for blood vessels in the necrotic areas / tumor necrosis pattern (central area of the tumors): 10 mg/kg test compound, 100 mg/kg CA4P
Experimental: (4-Methoxy-phenyl)-methyl-(2-methyl-quinazolin-4-yl)-amine hydrochloride was tested in a human tumor xenograft model to determine its vascular disruption effects. Crl:Nu/Nu-nuBR mice were grown and injected with 1×10^7 human ovarian OVCAR-3 carcinoma cells on the right flank and allowed to grow to various tumor volumes. Mice were then dosed with either vehicle, 100 mg/kg combretastatin A-4 phosphate (CA4P) (obtained from Toronto Research Chemicals, Ontario, Canada) or 10 mg/kg (4-Methoxy-phenyl)-methyl-(2-methyl-quinazolin-4-yl)-amine hydrochloride.
Animals were housed by groups in Positive Individual Ventilation (PIV) cages in flat-bottom cages (Thoren Caging Systems, Hazelton, Pa.) with no more than ten mice per cage. Cages contained autoclaved TEK-Fresh bedding (Harlan, Indianapolis, Ind.), which was changed every seven days. Environmental controls were set to maintain a temperature between 65° F. and 75° F. with a relative humidity of 30-70% in a 12:12 hour light:dark cycle. Animals were feed gamma-irradiated 2019 rodent chow ad libitum (Harlan, Indianapolis, Ind.). Tap water was sterilized using manufacture recommended conditions and supplied via an automated watering system ad libitum (Edstrom Industries, Waterford, Wis.). Twenty four hours after dosing, mice were sacrificed and tumors and hearts removed, fixed, sectioned and stained with hematoxylin and eosin Y (each obtained from Richard Allen Scientific, Kalamazoo, Mich.).

Structure (SMILES)	bradycardia [1]	dose limiting toxicity [1]	intratumor bleeding [1]	overall safety and tolerability [1]	peripheral cytotoxicity [1]	systolic blood pressure [1]	effects on cardiac conduction (PR, QRS or QTC) ([1]; ECG)	blood vessels in the necrotic areas [2]	tumor necrosis pattern (central area of the tumors) [2]	degree of necrosis compared with CA4P treated animals ([2]; 10 mg/kg vs 100 mg/kg CA4P)
COc1ccc(N(C)c2nc(C)nc3ccccc23)cc1 [(4-Methoxy-phenyl)-methyl-(2-methyl-quinazolin-4-yl)-amine hydrochloride]	occasional episodes of bradycardia	vascular in nature, manifested by an acute coronary syndrome	incidences of intratumor bleeding	safe and tolerable	no evidence of cytotoxity peripherally	dose-related increase	no significant effects	consistently congested with perivascular hemorrhage	extensive necrosis with a rim of viable tumor tissue around the periphery	greater
COc1ccc(/C=C\c2cc(OC)c(OC)c(OC)c2)cc1OP(=O)(O)O [CA4P, combretastatin A-4 phosphate, reference compound]								consistently congested with perivascular hemorrhage	extensive necrosis with a rim of viable tumor tissue around the periphery	
